Experimental data published in patent US20260062388A1, “POLYMORPHIC FORM OF NEPICASTAT ACID ADDITION SALT, PREPARATION METHOD THEREFOR AND USE THEREOF” (Jiangsu Yahong Meditech Co., Ltd., priority 2022, published 2026).
≈ marks a conversion by molar mass, not a printed value.

Key:
Format in all cases: physicochemical
[1] = Stability tests on crystal forms of acid addition salts: high-temperature test and accelerated test, 4 weeks; settings: for stability under accelerated conditions: 40° C.±2° C./75% RH±5% RH; for stability under high temperature conditions: 60±2° C.
[2] = Competitive experiments of crystal forms I and II by adding crystal seeds (different water activities); settings: room temperature, 3 days
Experimental: To confirm stability of the crystal forms at room temperature, the following competitive experiments were conducted for the crystal forms I and II:
The suspensions were stirred for 24 hours at room temperature, and all systems had solid residues. All systems were centrifuged and the supernatants were taken. […] The resulting suspensions were sonicated for 1 minute, stirred for 3 days at room temperature, and sampled to detect the crystal form.

[3] = Dynamic vapor sorption (DVS) hygroscopicity
Experimental: DVS curves are acquired on DVS Intrinsic from SMS (Surface Measurement Systems). • Testing temperature: 25° C. • Sample amount: 10-20 mg • dm/dt: 0.002%/min; • RH range: 0% RH-95% RH-0% RH • RH gradient: 10%

[4] = Stability studies under relatively harsh conditions (40° C., 40° C./75% RH, 60° C., 60° C./75% RH) on crystal forms I and II
[5] = Approximate solubility test of the free base of nepicastat; settings: for solubility: thermodynamic from solid, approximate solubility
Experimental: In order to select a suitable method for salt form screening, an approximate solubility test was conducted on the compound. The test method was as follows: about 4 mg of the free base of nepicastat was weighed, an appropriate volume of a solvent was added gradually thereto and shaken to observe whether the free base was dissolved, and the volumes of the solvent were recorded, including the volume that enabled complete dissolution and the previous volume of the solvent that was not able to completely dissolve the free base. For poor solubility, the total amount of the solvent added was no more than 4 mL. The approximate solubility thereof was calculated.

[6] = Approximate solubility test on crystal forms of hydrochloride salt of nepicastat at room temperature; settings: purified water
[7] = Approximate solubility tests on crystal forms of acid addition salts of nepicastat in water (room temperature)

NCc1c[nH]c(=S)n1[C@H]1CCc2c(F)cc(F)cc2C1.O=S(=O)(O)O [crystal form III of sulfate salt (1:1), bisulfate salt of nepicastat]
stability under accelerated conditions [1]: stable | stability under high temperature conditions [1]: the impurities increased

NCc1c[nH]c(=S)n1C1CCc2c(F)cc(F)cc2C1.O=C(O)CC(O)(CC(=O)O)C(=O)O (stereo not shown) [crystal form I of citrate salt, citrate salt of nepicastat]
stability under accelerated conditions [1]: stable | stability under high temperature conditions [1]: the impurities increased

Cl.NCc1c[nH]c(=S)n1[C@H]1CCc2c(F)cc(F)cc2C1 [crystal form II of hydrochloride salt, hydrochloride salt of nepicastat]
stability in competitive experiment ([2]; ethanol-water mixed solutions with lower water activity (0.291-0.750)): could exist stably | stability in competitive experiment ([2]; purified water): not as good as that of the crystal form I | hygroscopicity of the sample ([3]; DVS, 0% RH to 80% RH): slight hygroscopicity | weight gain by hygroscopicity ([3]; DVS, from 0% RH to 80% RH, 25° C.): about 0.453% | crystal form before and after the DVS test ([3]; XRPD before and after DVS): remained unchanged | crystal form stability (XRPD pattern) ([4]; 40° C.): converted into the crystal form III | crystal form stability (XRPD pattern) ([4]; 40° C./75% RH, 15 days): the crystal form did not change | crystal form stability (XRPD pattern) ([4]; 60° C., 15 days): converted into the crystal form III | crystal form stability (XRPD pattern) ([4]; 60° C./75% RH, 15 days): the crystal form did not change

NCc1c[nH]c(=S)n1[C@H]1CCc2c(F)cc(F)cc2C1 [free base of nepicastat, Nepicastat]
approximate solubility (qualitative) ([5]; in dichloromethane:methanol (1:1, V:V), methanol, acetone and ethanol): higher solubility | solubility ([5]; organic solvent or mixture, solvent 2-Methyltetrahydrofuran): < 1000 µg/mL | solubility ([5]; organic solvent or mixture, solvent Acetone): 4000 to 5000 µg/mL (≈ 13.5 to 16.9 mM) | solubility ([5]; organic solvent or mixture, solvent Dichloromethane): < 1000 µg/mL | solubility ([5]; organic solvent or mixture, solvent Dichloromethane:methanol (1:1)): 19700 to 39300 µg/mL (≈ 66.7 to 133 mM) | solubility ([5]; organic solvent or mixture, solvent Ethanol): 2900 to 3400 µg/mL (≈ 9.82 to 11.5 mM) | solubility ([5]; organic solvent or mixture, solvent Ethyl acetate): < 1000 µg/mL | solubility ([5]; organic solvent or mixture, solvent Methanol): 6900 to 10300 µg/mL (≈ 23.4 to 34.9 mM) | solubility ([5]; organic solvent or mixture, solvent Methyl tert-butyl ether): < 1000 µg/mL | solubility ([5]; organic solvent or mixture, solvent N-heptane): < 1000 µg/mL | solubility ([5]; solvent Purified water): < 1000 µg/mL

NCc1c[nH]c(=S)n1[C@H]1CCc2c(F)cc(F)cc2C1.O=C(O)/C=C/C(=O)O [crystal form I of fumarate salt, fumarate salt of nepicastat]
stability under accelerated conditions [1]: stable | stability under high temperature conditions [1]: the impurities increased

NCc1c[nH]c(=S)n1[C@H]1CCc2c(F)cc(F)cc2C1.O=P(O)(O)O [crystal form I of phosphate salt, phosphate salt of nepicastat]
stability under accelerated conditions [1]: stable | stability under high temperature conditions [1]: the impurities slightly increased

Cl.NCc1c[nH]c(=S)n1[C@H]1CCc2c(F)cc(F)cc2C1 [hydrochloride salt of nepicastat]
solubility in purified water [6]: 7400 µg/mL

maleate salt of nepicastat [crystal form I of maleate salt]
Approximate solubility ([7]; in purified water, at room temperature, calculated by the salt): 1.8~3.6 mg/mL | solubility in purified water compared with other candidate salt forms ([7]; purified water, room temperature): slightly higher than that of other candidate salt forms | stability under accelerated conditions [1]: stable | stability under high temperature conditions [1]: stable

CS(=O)(=O)O.NCc1c[nH]c(=S)n1[C@H]1CCc2c(F)cc(F)cc2C1 [crystal form I of methanesulfonate salt, methanesulfonate salt of nepicastat]
stability under accelerated conditions [1]: stable | stability under high temperature conditions [1]: stable

NCc1c[nH]c(=S)n1[C@H]1CCc2c(F)cc(F)cc2C1.NCc1c[nH]c(=S)n1[C@H]1CCc2c(F)cc(F)cc2C1.O=S(=O)(O)O [crystal form II of sulfate salt (1:0.5), sulfate salt of nepicastat]
stability under accelerated conditions [1]: stable | stability under high temperature conditions [1]: the impurities increased
